AC50 data for 30 compounds are collected here from patent US20250171438A1 (Agios Pharmaceuticals, Inc., priority 2022, published 2025).

The first assay deals with T1, human PAH with the R408W mutation (Homo sapiens, UniProt P00439, R408W).
T1 construct: expressed in transfected cells
T1 sequence (P00439 1-452 R408W): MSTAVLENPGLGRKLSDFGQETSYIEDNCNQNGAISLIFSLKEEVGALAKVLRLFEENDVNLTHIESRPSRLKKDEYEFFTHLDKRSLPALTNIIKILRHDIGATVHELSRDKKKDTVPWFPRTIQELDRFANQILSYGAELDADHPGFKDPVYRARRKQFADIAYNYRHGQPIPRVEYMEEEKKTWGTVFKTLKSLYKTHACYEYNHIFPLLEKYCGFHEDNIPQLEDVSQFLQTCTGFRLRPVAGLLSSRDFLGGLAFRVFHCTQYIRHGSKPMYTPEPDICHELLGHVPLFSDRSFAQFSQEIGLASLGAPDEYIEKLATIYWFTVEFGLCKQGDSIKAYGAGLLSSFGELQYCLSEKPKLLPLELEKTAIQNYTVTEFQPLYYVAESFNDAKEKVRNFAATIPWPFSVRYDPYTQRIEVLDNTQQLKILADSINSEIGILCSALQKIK
As to the kind of experiment: Cell Based Phenylalanine Flux Assay. Also noted: scale not given here. The note with it: A375 cells expressing human R408W PAH; 24 hrs compound incubation; 13C-Tyrosine by LC-MS; average where tested multiple times; read-out: AC50.
`CC(C)(O)c1cc(C(=O)N2CCc3[nH]cnc3[C@@H]2c2nc3c(F)cccc3s2)on1` [Example 2169, (R)-(4-(4-fluorobenzo[d]thiazol-2-yl)-6,7-dihydro-1H-imidazo[4,5-c]pyridin-5(4H)-yl)(3-(2-hydroxypropan-2-yl)isoxazol-5-yl)methanone]: the AC50 (usually the concentration giving half of the maximal activity seen) fell in the range of 1000 to 5000 nM.
For `O=C(c1cnn2ccc(F)cc12)N1CCc2[nH]cnc2[C@@H]1c1nc2ccccc2s1` [Example 1104, (R)-(4-(benzo[d]thiazol-2-yl)-6,7-dihydro-1H-imidazo[4,5-c]pyridin-5(4H)-yl)(5-fluoropyrazolo[1,5-a]pyridin-3-yl)methanone], the AC50 lay within 1000 to 5000 nM.
With `O=C(c1nnc(N2CCC(F)CC2)o1)N1CCc2[nH]cnc2[C@@H]1c1nc2ccccc2s1` [Example 1592, (R)-(4-(benzo[d]thiazol-2-yl)-6,7-dihydro-1H-imidazo[4,5-c]pyridin-5(4H)-yl)(5-(4-fluoropiperidin-1-yl)-1,3,4-oxadiazol-2-yl)methanone], the AC50 lay within 1000 to 5000 nM.
The same measure, in the same setting: next, `O=C(N1CCc2[nH]cnc2[C@H]1c1nc2ccccc2s1)C1(CF)CC1` [Example 1255]: 500 to 1000 nM; `CC(C)(C)c1ncc(C(=O)N2CCc3[nH]cnc3[C@@H]2c2nc3c(F)cccc3s2)s1` [Example 1426, (R)-(2-(tert-butyl)thiazol-5-yl)(4-(4-fluorobenzo[d]thiazol-2-yl)-6,7-dihydro-1H-imidazo[4,5-c]pyridin-5(4H)-yl)methanone]: 500 to 1000 nM.
With `O=C(c1ncn2ccccc12)N1CCc2[nH]cnc2[C@@H]1c1nc2ccccc2s1` [Example 1028, (R)-(4-(benzo[d]thiazol-2-yl)-6,7-dihydro-1H-imidazo[4,5-c]pyridin-5(4H)-yl)(imidazo[1,5-a]pyridin-1-yl)methanone], the AC50 was more than 5000 nM.
For `O=C(c1ocnc1-c1ccccc1)N1CCc2[nH]cnc2[C@@H]1c1nc2c(F)cccc2s1` [Example 2178, (R)-(4-(4-fluorobenzo[d]thiazol-2-yl)-6,7-dihydro-1H-imidazo[4,5-c]pyridin-5(4H)-yl)(4-phenyloxazol-5-yl)methanone], the AC50 was more than 5000 nM.
Regarding `Cc1ncoc1C(=O)N1CCc2[nH]cnc2[C@@H]1c1nc2ccccc2[nH]1` [Example 992, (R)-(4-(1H-benzo[d]imidazol-2-yl)-6,7-dihydro-1H-imidazo[4,5-c]pyridin-5(4H)-yl)(4-methyloxazol-5-yl)methanone], the AC50 is more than 5000 nM.
As for `O=C(c1oc(N2CCOCC2)nc1C(F)(F)F)N1CCc2[nH]cnc2[C@H]1c1nc2c(F)cccc2s1` [Example 1597, (S)-(4-(4-fluorobenzo[d]thiazol-2-yl)-6,7-dihydro-1H-imidazo[4,5-c]pyridin-5(4H)-yl)(2-morpholino-4-(trifluoromethyl)oxazol-5-yl)methanone], the AC50 was less than 500 nM.
As to `c1ccc2sc([C@H]3c4nc[nH]c4CCN3CCC3CC3)nc2c1` [Example 1275, (R)-2-(5-(2-cyclopropylethyl)-4,5,6,7-tetrahydro-1H-imidazo[4,5-c]pyridin-4-yl)benzo[d]thiazole], the AC50 lay in the range of 1000 to 5000 nM.
As to `O=C(c1oc(OCCC(F)(F)F)nc1C(F)F)N1CCc2[nH]cnc2[C@@H]1c1nc2ccccc2s1` [Example 1771, (R)-(4-(benzo[d]thiazol-2-yl)-6,7-dihydro-1H-imidazo[4,5-c]pyridin-5(4H)-yl)(4-(difluoromethyl)-2-(3,3,3-trifluoropropoxy)oxazol-5-yl)methanone], the AC50 was less than 500 nM.
With `Cn1cc(-c2ncc(C(=O)N3CCc4[nH]cnc4[C@H]3c3nc4ccccc4s3)o2)cn1` [Example 1344], the AC50 lay within 500 to 1000 nM.
For the compound `N#Cc1nc(OCCC(F)(F)F)oc1C(=O)N1CCc2[nH]cnc2[C@@H]1c1nc2ccccc2s1` [Example 1673, (R)-5-(4-(benzo[d]thiazol-2-yl)-4,5,6,7-tetrahydro-1H-imidazo[4,5-c]pyridine-5-carbonyl)-2-(3,3,3-trifluoropropoxy)oxazole-4-carbonitrile], the AC50 is more than 5000 nM.
As for `Cc1ncoc1C(=O)N1CC2(CC2)c2[nH]cnc2[C@@H]1c1nc2ccccc2s1` [Example 1578, (R)-(4′-(benzo[d]thiazol-2-yl)spiro[cyclopropane-1,7′-imidazo[4,5-c]pyridin]-5′(1′H,4′H,6′H)-yl)(4-methyloxazol-5-yl)methanone], the AC50 was more than 5000 nM.
In the case of `Cn1cc(-c2nc(C3CC3)c(C(=O)N3CCc4[nH]cnc4[C@H]3c3nc4ccccc4s3)o2)cn1` [Example 1518], the AC50 is less than 500 nM.
Consider `COc1ccn2ncc(C(=O)N3CCc4[nH]cnc4[C@@H]3c3nc4ccccc4s3)c2c1` [Example 1084, (R)-(4-(benzo[d]thiazol-2-yl)-6,7-dihydro-1H-imidazo[4,5-c]pyridin-5(4H)-yl)(5-methoxypyrazolo[1,5-a]pyridin-3-yl)methanone], for which the AC50 was 1000 to 5000 nM.
Take `O=C(c1cnn2ccc(Br)cc12)N1CCc2[nH]cnc2[C@@H]1c1nc2ccc(F)cc2s1` [Example 1138, (R)-(5-bromopyrazolo[1,5-a]pyridin-3-yl)(4-(6-fluorobenzo[d]thiazol-2-yl)-6,7-dihydro-1H-imidazo[4,5-c]pyridin-5(4H)-yl)methanone]: the AC50 was in the range of 1000 to 5000 nM.
On the same count and under the same terms, under `O=C(c1nnc(-c2ccc(F)cn2)o1)N1CCc2[nH]cnc2[C@H]1c1nc2c(F)cccc2s1` [Example 1711, (S)-(4-(4-fluorobenzo[d]thiazol-2-yl)-6,7-dihydro-1H-imidazo[4,5-c]pyridin-5(4H)-yl)(5-(5-fluoropyridin-2-yl)-1,3,4-oxadiazol-2-yl)methanone] stands 1000 to 5000 nM; under `Cc1nn(C)c(Cl)c1C(=O)N1CCc2[nH]cnc2[C@H]1c1nc2c(F)cccc2s1` [Example 1742], less than 500 nM; under `Cc1nc(-c2cnn(C)c2)oc1C(=O)N1CCc2[nH]cnc2[C@@H]1c1nc2c(F)cccc2s1` [Example 1377, (R)-(4-(4-fluorobenzo[d]thiazol-2-yl)-6,7-dihydro-1H-imidazo[4,5-c]pyridin-5(4H)-yl)(4-methyl-2-(1-methyl-1H-pyrazol-4-yl)oxazol-5-yl)methanone], more than 5000 nM.

Staying with this assay, now noted: A375 cells expressing human R408W PAH; 24 hrs with compound; 13C-Tyrosine by LC-MS; average where tested multiple times.
For `Cn1cc(C(C)(C)C(=O)N2CCc3[nH]cnc3C2c2nc3ccccc3s2)cn1` (stereo not drawn), the AC50 result is “E, E”.

The assay is the same for the next values; noted with them: A375 cells expressing human R408W PAH; 24 hrs with compound; 13C-Tyrosine by LC-MS; average where tested multiple times; read-out: AC50.
In the case of `CC1CN(C(=O)c2nnc(C(C)(C)O)o2)C(c2nc3ccccc3s2)c2nc[nH]c21` (stereo not drawn), the AC50 lay within 1000 to 5000 nM.
Take `O=C(c1oc(-c2ccccn2)nc1C1CC1)N1CCCc2[nH]cnc2C1c1nc2ccccc2[nH]1` (stereo not drawn): the AC50 was in the range of 1000 to 5000 nM.
As to `COCCc1ncc(C(=O)N2CCc3[nH]cnc3C2c2nc3ccccc3s2)o1` (stereo not drawn), the AC50 was more than 5000 nM.
In the case of `O=C(c1n[nH]c2ccccc12)N1CCc2[nH]cnc2C1c1nc2cccc(F)c2s1` (stereo not drawn), the AC50 is 1000 to 5000 nM.
On the same count and under the same terms, next, `O=C(c1nnc(CCN2CC(F)C2)o1)N1CCc2[nH]cnc2C1c1nc2ccccc2s1` (stereo not drawn): more than 5000 nM; `O=C(CCc1nccs1)N1CCc2[nH]cnc2C1c1nc2cc(F)ccc2s1` (stereo not drawn): 1000 to 5000 nM.
In the case of `O=C(CCc1nccs1)N1CCc2[nH]cnc2C1c1nc2ccc(F)cc2[nH]1` (stereo not drawn), the AC50 was in the range of 1000 to 5000 nM.
On the same count and under the same terms, under `O=C(c1nc2ccccc2s1)N1CCc2[nH]cnc2C1c1nc2c(F)cccc2s1` (stereo not drawn) stands 1000 to 5000 nM.
As to `CC1CN(C(=O)c2cnco2)C(c2nc3c(F)cccc3s2)c2nc[nH]c21` (stereo not drawn), the AC50 is more than 5000 nM.
